Common to all, as to format: cell-based, human
Data set [1] deals with A549 (IMP-3+, HLA-A2-). Description: 51Cr release assay of peptide-induced CTLs against cancer cell line. Conditions: for cytotoxicity: CTLs from lung cancer patient 14 (SEQ ID NOs: 3 and 5) and patient 4 (SEQ ID NO: 6) (FIG. 5B). How it is done: (§1) The expression of IMP-3 was determined by reverse transcription-polymerase chain reaction analysis. […] The DCs were pulsed with 20 micro-g/mL of the candidate peptides in the presence of 4 micro-g/mL beta2-microglobulin (Sigma-Aldrich, St. Louis, Mo., USA) for 2 hours at 37 degrees C. in AIM-V (Invitrogen Japan, Tokyo, Japan) containing 2% heat-inactivated autologous plasma. The cells were then irradiated (40 Gy) and incubated with the CD8^+ T cells. […] After 2 days, these cultures were supplemented with human recombinant IL-2 (PeproTech, Rocky Hill, N.J., USA) to a final concentration of 20 IU/mL. Two additional weekly stimulations with peptide-loaded autologous DCs, using the same procedure, were carried out on days 7 and 14. Six days after the last stimulation, the antigen-specific responses of the induced CTLs were investigated by IFN-gamma ELISPOT assay and ^51Cr release assay. […] For ^51Cr release assay, CTLs were co-cultured with peptide-pulsed T2 cells or cancer cells as a target cells (5×10^3/well) at the indicated effector/target ratio and a standard ^51Cr release assay was done as described previously (Komori H et al., Clin Cancer Res. 2006 May 1; 12 (9):2689-97).

In data set [2] the test system is SKHep1. The description is as above. The following applies: CTL lines generated from the healthy donors (FIG. 5D). The protocol: as §1
Data set [3] has as its system MCF7 (IMP-3-, HLA-A2+). The data set is described as above. How it is done: as §1
The subject of data set [4] is PANC-1 (IMP-3+, HLA-A2+). The data set is described as above. The protocol: as §1
Data set [5] has as its system SW620. The data set is described as above. The following applies: CTL lines generated from the healthy donors (FIG. 5D). The protocol:
as §1

The subject of data set [6] is T2 cells pulsed with cognate peptides. Nature of the data set: 51Cr release assay of peptide-induced CTLs against peptide-pulsed T2 cells. How it is done: The DCs were pulsed with 20 micro-g/mL of the candidate peptides in the presence of 4 micro-g/mL beta2-microglobulin (Sigma-Aldrich, St. Louis, Mo., USA) for 2 hours at 37 degrees C. in AIM-V (Invitrogen Japan, Tokyo, Japan) containing 2% heat-inactivated autologous plasma. The cells were then irradiated (40 Gy) and incubated with the CD8^+ T cells. […] After 2 days, these cultures were supplemented with human recombinant IL-2 (PeproTech, Rocky Hill, N.J., USA) to a final concentration of 20 IU/mL. Two additional weekly stimulations with peptide-loaded autologous DCs, using the same procedure, were carried out on days 7 and 14. Six days after the last stimulation, the antigen-specific responses of the induced CTLs were investigated by IFN-gamma ELISPOT assay and ^51Cr release assay. […] For ^51Cr release assay, CTLs were co-cultured with peptide-pulsed T2 cells or cancer cells as a target cells (5×10^3/well) at the indicated effector/target ratio and a standard ^51Cr release assay was done as described previously (Komori H et al., Clin Cancer Res. 2006 May 1; 12 (9):2689-97).

In data set [7] the test system is MCF7/IMP-3 (MCF7 cells transfected with IMP-3 gene). Description: 51Cr release assay of peptide-induced CTLs against transfected cell line. The following applies: CTL lines generated from the healthy donors (FIG. 5C). The protocol: as §1
Data set [8] relates to CD107a on the cell surface of CTLs. Nature of the data set: CD107a exposure on the cell surface of CTLs (FACS). Conditions: CTLs specific to IMP-3-552-560 stimulated with the named peptide at 1 microgram/ml for 5 hours; mouse IgG staining 0.7%. How it is done: The exposure of CD107a on the cell surface of the CTLs after antigen stimulation was detected by anti-CD107a antibody. […] These CTLs were cultured for 5 hours at 37 degrees C. and were subsequently stained with PE conjugated anti-human CD8 mAb. All peptides were used at a final concentration of 1 microgram/ml. Events shown are gated for CD8^+ T cells.

Where [9] appears, read: CTL lines generated from the healthy donors (FIG. 5D).
The mark [10] stands for this setting: CTLs induced from PBMCs of healthy donor 2 (FIG. 5A).
[11] abbreviates: CTL lines generated from the healthy donors (FIG. 5C).
[12] abbreviates: CTLs induced from PBMCs of healthy donors, not to T2 pulsed with irrelevant HIV-A2 peptide (FIG. 3B).
[13] abbreviates: CTLs from lung cancer patient 14 (SEQ ID NOs: 3 and 5) and patient 4 (SEQ ID NO: 6) (FIG. 5B).

Residues, ends and D or L forms follow the SMILES beside them.

Consider `CC(C)C[C@H](NC(=O)[C@H](CC(C)C)NC(=O)[C@@H](N)CCCNC(=N)N)C(=O)N[C@H](C(=O)N1CCC[C@H]1C(=O)N[C@H](C(=O)N[C@@H](CCC(N)=O)C(=O)N[C@@H](Cc1ccccc1)C(=O)N[C@H](C(=O)O)C(C)C)[C@@H](C)O)C(C)C` [SEQ ID NO: 1, RLLVPTQFV] (H-RLLVPTQFV-OH), for which the cytotoxic activity entry in data set [1] (setting [9]) is given as “not against”; in data set [1] (setting [10]), “no cytotoxic activity”; in data set [2], “exhibited cytotoxic activity”; in data set [3] (setting [9]), “not against”; in data set [3] (setting [10]) it was “no cytotoxic activity”; in data set [4] (setting [10]) it was “showed cytotoxic activity”. For the same molecule, the cytotoxic activity result in data set [5] and in data set [6] (setting [12]) was “exhibited cytotoxic activity” throughout. In addition, the values for the cytotoxicity entry in data set [3] (setting [11]) and in data set [7] were “not against” and “exhibited cytotoxicity”, respectively.

Turning to `CC[C@H](C)[C@H](NC(=O)[C@H](CCC(=O)O)NC(=O)[C@H](CCC(N)=O)NC(=O)[C@@H](NC(=O)[C@@H](N)CCCCN)[C@@H](C)CC)C(=O)N[C@@H](CC(C)C)C(=O)N[C@H](C(=O)N[C@@H](CCC(N)=O)C(=O)N[C@H](C(=O)O)C(C)C)[C@@H](C)O` [SEQ ID NO: 3, KIQEILTQV] (H-KIQEILTQV-OH), the cytotoxicity entry in data set [1] and in data set [3] (setting [13]) was “without showing cytotoxicity” throughout. In addition, the cytotoxic activity result is “no cytotoxic activity” in data set [1] (setting [10]); “no cytotoxic activity” in data set [3] (setting [10]); “showed cytotoxic activity” in data set [4] (setting [13]); “showed cytotoxic activity” in data set [4] (setting [10]); “showed cytotoxic activity” in data set [6] (CTLs from PBMCs of lung cancer patient 4, no activity to T2 pulsed with HIV peptide (FIG. 4B)).

On to `CC[C@H](C)[C@H](NC(=O)[C@@H](N)CCCCN)C(=O)N1CCC[C@H]1C(=O)N[C@H](C(=O)N[C@@H](CO)C(=O)NCC(=O)N1CCC[C@H]1C(=O)N[C@@H](Cc1ccccc1)C(=O)N[C@@H](CC(C)C)C(=O)O)C(C)C` [SEQ ID NO: 5, KIPVSGPFL] (H-KIPVSGPFL-OH), for which the cytotoxicity result in data set [1] and in data set [3] (setting [13]) was “without showing cytotoxicity” throughout. The cytotoxic activity result in data set [1] (setting [10]) is recorded as “no cytotoxic activity”; in data set [3] (setting [10]) it was “no cytotoxic activity”; in data set [4] (setting [13]), “showed cytotoxic activity”; in data set [4] (setting [10]) it was “showed cytotoxic activity”; in data set [6] (CTLs from PBMCs of lung cancer patient 3, no activity to T2 pulsed with HIV peptide (FIG. 4B)), “showed cytotoxic activity”.

For the molecule `CC(C)C[C@H](NC(=O)[C@@H](N)CC(N)=O)C(=O)N[C@@H](CO)C(=O)N[C@@H](CO)C(=O)N[C@@H](C)C(=O)N[C@@H](CCC(=O)O)C(=O)N[C@H](C(=O)N[C@H](C(=O)N[C@H](C(=O)O)C(C)C)C(C)C)C(C)C` [SEQ ID NO: 6, NLSSAEVVV] (H-NLSSAEVVV-OH), the cytotoxic activity entry in data set [1] (setting [9]) is given as “not against”; in data set [1] (setting [10]) it was “no cytotoxic activity”; in data set [2] it was “exhibited cytotoxic activity”; in data set [3] (setting [9]), “not against”; in data set [3] (setting [10]), “no cytotoxic activity”; in data set [4] (setting [13]) it was “showed cytotoxic activity”. Moreover, the cytotoxic activity result was “showed cytotoxic activity” in data set [4] (setting [10]), “exhibited cytotoxic activity” in data set [5] and “exhibited cytotoxic activity” in data set [6] (setting [12]). In addition, the cytotoxicity entry in data set [1] is “without showing cytotoxicity”; in data set [3] (setting [11]) it was “not against”; in data set [3] (setting [13]), “without showing cytotoxicity”; in data set [7], “exhibited cytotoxicity”.

For SLYNTYATL [HIV peptide], the “CD8+/CD107a+ cells of all CD8+ cells” value in data set [8] was 1.5%.

(Values after US20120308590A1, “IMP-3 OLIGOPEPTIDES AND VACCINES INCLUDING THE SAME” (OncoTherapy Science, Inc., priority 2009, published 2012).)
